Source: patent US12023318B2, “Therapy for Inflammatory Linear Verrucous Epidermal Nevus (ILVEN)” (UCL Business Ltd, priority 2018, dated 2024)

System: Inflammatory Linear Verrucous Epidermal Nevus (ILVEN)
Experiment: Topical cholesterol/simvastatin treatment of patients with ILVEN
Format: in vivo, human
Conditions: patient 9, localised ILVEN left arm; tried after no response to cholesterol/simvastatin
From the text: Fourteen patients with ILVEN were recruited. Photographs were taken of all cases as a baseline. DNA was extracted directly from lymphocytes and from affected skin biopsy without culture, using standard methods. Where possible a second skin biopsy of affected skin was also obtained for primary keratinocyte culture and immortalization with HPV to establish a stable cell line. In a minority of cases a skin biopsy of normal skin was also taken for keratinocyte culture and immortalization. Histopathology of affected skin was obtained in all cases. Thirteen of the fourteen patients were treated with […]/2% simvastatin in Unguentum Merck, applied topically twice a day for a minimum period of three months in the first instance, and only applied to one designated area of affected skin, using the rest of the skin as an internal control. If there was no response in this time the treatment was stopped. Where there was a positive response the treatment has been continued, and extended gradually to different body areas.

CC(C)CCC[C@@H](C)[C@H]1CC[C@H]2[C@@H]3CC=C4C[C@@H](O)CC[C@]4(C)[C@H]3CC[C@]12C [cholesterol, Cholesterol]
Response to cholesterol only: no
